pIC50: −log10 of the molar value.
Key:
Format in all cases: functional, cell-based
SK-MEL-2 = assay: Anticancer activity against human SK-MEL-2 cells by SRB assay
A549 = assay: Anticancer activity against human A549 cells by SRB assay
XF498 = assay: Anticancer activity against human XF498 cells by SRB assay
SK-OV-3 = assay: Anticancer activity against human SKOV3 cells by SRB assay
BV-2 = assay: Antiinflammatory activity in mouse BV2 cells assessed as inhibition of lipopolysaccharide induced NO production

Row | pIC50 (SK-MEL-2) | pIC50 (A549) | pIC50 (SK-OV-3) | pIC50 (BV-2) | Structure (SMILES) | pIC50 (XF498)
1 | 4.60 | 4.69 | < 4.52 | 3.82 | COc1cc([C@@H]2c3cc(O)c(OC)cc3C[C@H](CO)[C@H]2CO)ccc1O [(-)-ISOLARICIRESINOL] | 4.64
2 | < 4.52 | 4.61 | < 4.52 | 4.29 | COc1cc(C[C@H]2CO[C@H](c3ccc(O)c(OC)c3)[C@H]2CO)ccc1O [LARICIRESINOL] | 4.93
3 | < 4.52 | < 4.52 | < 4.52 | 4.16 | COc1cc([C@H]2c3c(cc(OC)c(O)c3OC)C[C@@H](CO)[C@@H]2CO)cc(OC)c1O | 5.15
4 | 4.58 | < 4.52 | < 4.52 | 4.58 | COc1cc([C@@H]2OC[C@H]3[C@@H]2CO[C@H]3c2ccc(O)c(OC)c2)ccc1O [(-)-PINORESINOL] | 4.88
5 | < 4.52 | 4.67 | < 4.52 | 3.95 | COc1cc([C@@H]2c3c(cc(OC)c(O)c3OC)C[C@H](CO)[C@H]2CO)cc(OC)c1O | 4.58
6 | – | – | 5.74 | – | COc1cc([C@@H]2c3cc4c(cc3[C@@H](O[C@@H]3O[C@@H]5CO[C@@H](C)O[C@H]5[C@H](O)[C@H]3O)[C@H]3COC(=O)[C@H]23)OCO4)cc(OC)c1O [ETOPOSIDE] | –
7 | < 4.52 | < 4.52 | < 4.52 | – | COc1cc(C(=O)CCO)ccc1O | 4.55
8 | < 4.52 | 4.62 | < 4.52 | 4.02 | COc1cc(C[C@H]2COC(=O)[C@@H]2Cc2ccc(O)c(OC)c2)ccc1O [MATAIRESINOL] | 4.63
9 | < 4.52 | < 4.52 | < 4.52 | 3.84 | COc1cc([C@@H]2OC[C@@H]3[C@H]2CO[C@H]3c2ccc(O[C@@H]3O[C@H](CO)[C@@H](O)[C@H](O)[C@H]3O)c(OC)c2)ccc1O | 4.60
10 | < 4.52 | < 4.52 | < 4.52 | 3.70 | COc1cc(C[C@@H](CO)[C@](O)(CO)Cc2ccc(O)c(OC)c2)ccc1O | 4.56
11 | < 4.52 | < 4.52 | < 4.52 | – | COc1cc(C(=O)O)ccc1O [VANILLIC ACID] | < 4.52
12 | 4.84 | < 4.52 | < 4.52 | 4.87 | COc1cc([C@@H]2OC[C@@H]3[C@H]2CO[C@H]3c2cc(OC)c(O)c(OC)c2)cc(OC)c1O | 5.05
13 | 4.63 | 4.65 | < 4.52 | 4.54 | COc1cc([C@H]2Oc3c(OC)cc(CCCO)cc3[C@@H]2CO)ccc1O [DIHYDRODEHYDRODICONIFERY ALCOHOL] | 4.87
14 | 4.60 | 4.70 | 4.67 | 4.35 | COc1ccc(C[C@H]2CO[C@H](c3ccc(OC)c(OC)c3)[C@H]2CO)cc1OC | 4.81
15 | < 4.52 | < 4.52 | < 4.52 | – | COc1cc(C(=O)CCO)cc(OC)c1O | 4.61
16 | 4.57 | < 4.52 | < 4.52 | – | COC(=O)[C@H](CO)c1cc(OC)c(O)c(OC)c1 [BERFUSSINOL] | < 4.52
17 | 4.56 | < 4.52 | < 4.52 | 4.04 | COc1ccc([C@H](O)[C@@H](CO)Oc2c(OC)cc([C@@H]3Oc4c(OC)cc(CCCO)cc4[C@H]3CO)cc2OC)cc1OC [BERBIKONOL] | 4.71
18 | < 4.52 | < 4.52 | < 4.52 | – | COc1ccc(CC(=O)O)cc1 | 4.55
19 | < 4.52 | < 4.52 | < 4.52 | 4.23 | COc1cc([C@@H](O)[C@@H](CO)Oc2ccc(CCCO)cc2OC)ccc1O | 4.58
20 | – | – | – | 4.77 | CNC(=N)NCCC[C@H](N)C(=O)O [TILARGININE] | –
21 | 4.67 | < 4.52 | < 4.52 | 4.06 | COc1cc(C[C@@H](CO)[C@H](CO)Cc2ccc(O)c(OC)c2)ccc1O [(+)-SECOISOLARICIRESINOL] | 4.73
22 | < 4.52 | 4.67 | < 4.52 | – | COc1cc(/C=C/C=O)ccc1O [CONIFERYL ALDEHYDE] | < 4.52

Source: ChEMBL document CHEMBL1759886, “Biological evaluation of phenolic constituents from the trunk of Berberis koreana” (Bioorg Med Chem Lett, 2011)
